Tests used:
Assay in all cases: relative viability (nuclei count vs DMSO), 5 days (fraction); higher = more cells survive
[1] = compound: C[C@]1(O)C[C@@H](c2nc(-c3ccc4ccc(-c5ccccc5)nc4c3)c3c(N)nccn32)C1 [Linsitinib] + CS(=O)(=O)CCNCc1ccc(-c2ccc3ncnc(Nc4ccc(OCc5cccc(F)c5)c(Cl)c4)c3c2)o1 [Lapatinib] (partner 2 µM)
Summary of the method: (§1)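 Cells from lung cancer lines were seeded into 1536-well plates and, one day later, dosed by pin tool. Treatments were either a single drug or a fixed dose of an anchor drug with five library-drug doses (not always all listed) in √10 steps. After 5 days, nuclei were stained in a one-step fixation (final 0.05% Triton X-100, 1% formaldehyde, 1 ug/ml Hoechst) and counted on 4× images, and relative viability is the treated-to-vehicle nuclei ratio, as the median of duplicate plates.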

[2] = compound: C[C@]1(O)C[C@@H](c2nc(-c3ccc4ccc(-c5ccccc5)nc4c3)c3c(N)nccn32)C1 [Linsitinib] + C[C@@H](Oc1cc(-c2cnn(C3CCNCC3)c2)cnc1N)c1c(Cl)ccc(F)c1Cl [Crizotinib] (partner 1 µM)
Summary of the method: as §1

[3] = compound: Cc1ccc(C(=O)N(CCCN)[C@@H](c2nc3cc(Cl)ccc3c(=O)n2Cc2ccccc2)C(C)C)cc1 [Ispinesib] + COc1cccc2cc(-c3nc([C@H]4CC[C@H](C(=O)O)CC4)n4ncnc(N)c34)[nH]c12 [OSI-027] (partner 0.5 µM)
Summary of the method: as §1

[4] = compound: Cc1ccc(C(=O)N(CCCN)[C@@H](c2nc3cc(Cl)ccc3c(=O)n2Cc2ccccc2)C(C)C)cc1 [Ispinesib] + Nc1ncn([C@H]2C[C@H](O)[C@@H](CO)O2)c(=O)n1 [Decitabine] (partner 2 µM)
Summary of the method: as §1

Row | Cell Line | relative viability ([1]; first compound 0.01 µM) | relative viability ([1]; first compound 0.03162 µM) | relative viability ([1]; first compound 0.1 µM) | relative viability ([1]; first compound 0.3162 µM) | relative viability ([1]; first compound 1 µM) | relative viability ([2]; first compound 0.01 µM) | relative viability ([2]; first compound 0.03162 µM) | relative viability ([2]; first compound 0.1 µM) | relative viability ([2]; first compound 0.3162 µM) | relative viability ([2]; first compound 1 µM) | relative viability ([3]; first compound 0.001 µM) | relative viability ([3]; first compound 0.003162 µM) | relative viability ([3]; first compound 0.01 µM) | relative viability ([3]; first compound 0.03162 µM) | relative viability ([3]; first compound 0.1 µM) | relative viability ([4]; first compound 0.001 µM) | relative viability ([4]; first compound 0.003162 µM) | relative viability ([4]; first compound 0.01 µM) | relative viability ([4]; first compound 0.03162 µM) | relative viability ([4]; first compound 0.1 µM)
1 | LU99A | 0.953 | 0.951 | 0.952 | 0.377 | 0.57 | 0.591 | 0.716 | 0.605 | 0.432 | 0.462 | 0.268 | 0.294 | 0.299 | 0.264 | 0.189 | 0.868 | 1.1 | 1.02 | 0.674 | 0.727
2 | LC-2-ad | 0.934 | 0.691 | 0.941 | 0.332 | 0.766 | 0.479 | 0.566 | 0.451 | 0.357 | 0.311 | 0.808 | 0.855 | 0.973 | 0.352 | 0.264 | 0.847 | 0.787 | 0.872 | 0.815 | 0.54
3 | NCI-H1650 | 0.8 | 0.84 | 0.777 | 0.164 | 0.481 | 1.03 | 1.08 | 0.963 | 0.915 | 0.799 | 0.573 | 0.718 | 0.623 | 0.174 | 0.271 | 0.527 | 0.448 | 0.45 | 0.331 | 0.185
4 | NCI-H1915 | 0.984 | 1.01 | 0.981 | 0.608 | 0.723 | 0.944 | 0.918 | 0.936 | 0.796 | 0.754 | 0.679 | 0.514 | 0.751 | 0.252 | 0.212 | 0.233 | 0.281 | 0.268 | 0.291 | 0.229
5 | ABC-1 | 1.13 | 1.5 | 1.32 | 1.34 | 1.21 | 1.26 | 1.01 | 1.01 | 0.614 | 0.905 | 0.488 | 0.524 | 0.58 | 0.203 | 0.283 | 0.997 | 1.12 | 1.35 | – | 0.509
6 | HCC-44 | 1.02 | 0.859 | 0.983 | 0.357 | 0.63 | 0.704 | 0.78 | 0.739 | 0.56 | 0.612 | 0.458 | 0.812 | 0.505 | 0.484 | 0.151 | 0.909 | 0.954 | 0.967 | 0.795 | 0.453
7 | HCC-78 | 0.364 | 0.651 | 0.514 | 0.676 | 0.542 | 0.298 | 0.356 | 0.278 | 0.338 | 0.265 | 0.439 | 0.448 | 0.368 | 0.345 | 0.318 | 0.68 | 0.732 | 0.825 | 0.577 | 0.578
8 | LXF-289 | 0.924 | 0.911 | 0.901 | 0.643 | 0.886 | 0.789 | 0.885 | 0.807 | 0.671 | 0.792 | 0.813 | 0.834 | 0.806 | 0.593 | 0.0721 | 0.359 | 0.388 | 0.387 | 0.404 | 0.349
9 | 201T | 0.967 | 1.06 | 1.07 | 0.789 | 0.978 | 1.02 | 1.03 | 1.07 | 1.11 | 1.01 | 0.828 | 0.952 | 0.834 | 0.56 | 0.181 | 0.849 | 0.859 | 0.897 | 0.889 | 0.839
10 | NCI-H1734 | 1.05 | 1.15 | 1.05 | 0.714 | 0.778 | 0.592 | 0.723 | 0.719 | 0.694 | 0.462 | 0.609 | 0.585 | 0.659 | 0.459 | 0.177 | 0.538 | 0.528 | 0.591 | 0.54 | 0.391
11 | NCI-H2126 | 0.774 | 0.754 | 0.704 | 0.392 | 0.455 | 0.972 | 1.06 | 0.988 | 0.841 | 0.903 | 0.757 | 0.894 | 0.674 | 0.664 | 0.63 | 0.541 | 0.536 | 0.57 | 0.551 | 0.559
12 | LOU-NH91 | 0.698 | 0.655 | 0.706 | 0.741 | 0.579 | 0.756 | 0.763 | 0.743 | 0.735 | 0.644 | 0.72 | 0.776 | 0.83 | 0.59 | 0.236 | 0.795 | 0.852 | 0.858 | 0.786 | 0.342
13 | NCI-H1792 | 0.903 | 0.847 | 0.706 | 0.667 | 0.649 | 1.01 | 0.96 | 0.951 | 0.764 | 0.746 | 0.889 | 1.09 | 0.743 | 0.862 | 0.356 | 0.548 | 0.546 | 0.725 | 0.484 | 0.238
14 | NCI-H1651 | 0.761 | 0.772 | 0.78 | 0.667 | 0.566 | 0.874 | 0.93 | 0.803 | 0.735 | 0.862 | 0.837 | 0.696 | 0.848 | 0.684 | 0.137 | 0.582 | 0.688 | 0.67 | 0.559 | 0.508
15 | HCC-366 | 1.14 | 0.8 | 1.07 | 0.326 | 0.874 | 0.542 | 0.487 | 0.583 | 0.433 | 0.429 | 0.944 | 1.01 | 1.33 | 0.204 | 0.0402 | 0.377 | 0.426 | 0.396 | 0.399 | 0.0716
16 | EKVX | 0.212 | 0.262 | 0.231 | 0.23 | 0.161 | 0.895 | 0.938 | 0.99 | 0.795 | 0.943 | 0.731 | 0.75 | 0.777 | 0.75 | 0.634 | 0.366 | – | 0.337 | 0.284 | 0.218
